Laboratory results as given in US20120258961A1, “4-AMINO-1,3-THIAZINE OR OXAZINE DERIVATIVE” (SHIONOGI & CO., LTD., priority 2009, published 2012).

Columns and labels:
[1] = test system: Neuroblastoma SH-SY5Y cells (SH/APPwt) with human wild-type β-APP excessively expressed; assay: Measurement of β-amyloid (Aβ) production inhibitory effect in cell; format: cell-based; settings: 24 hours, Amyloid β 1-40 HTRF in culture supernatant, read-out: Test example 2 IC50 (amount needed to inhibit Aβ production by 50%)
Procedure: Neuroblastoma SH-SY5Y cells (SH/APPwt) with human wild-type β-APP excessively expressed therein were prepared at 8×10^5 cells/mL, and 150 μl portions thereof were inoculated into each well of a 96-well culture plate (Falcon). The cells were cultured for 2 hours at 37° C. in a 5% gaseous carbon dioxide incubator. Then, a solution which had been preliminarily prepared by adding and suspending the test compound (DMSO (dimethyl sulfoxide) solution) so as to be 2 μl/50 μl medium was added to the cell sap. Namely, the final DMSO concentration was 1%, and the amount of the cell culture was 200 μl. After the incubation was performed for 24 hours from the addition of the test compound, 100 μl of the culture supernatant was collected from each fraction. The amount of the Aβ in each fraction was measured.
The Aβ amount was measured as follows. 10 μl of a homogeneous time resolved fluorescence (HTRF) measurement reagent (Amyloid β 1-40 peptide; IBA Molecular Holding, S.A.) and 10 μl of the culture supernatant were put into a 384-well half area microplate (black microplate, Costar) and mixed with each other, and then left standing overnight at 4° C. while the light was shielded. Then, the fluorescence intensity (excitation wavelength: 337 nm, measurement wavelength: 620 nm and 665 nm) was measured with a Wallac 1420 multilabel counter (Perkin Elmer life sciences). The Aβ amount was determined from the count rate at each measurement wavelength (10000×Count 665/Count 620), and the amount needed to inhibit Aβ production by 50% (IC50) was calculated from at least six different dosages.

[2] = BA test (oral absorption); format: in vivo; settings: plasma; from AUCs of oral and intravenous administration groups, mouse or rats
Procedure: Materials and Methods for studies on oral absorption
(1) Animal: Mouse or Rats
(2) Breeding conditions: mouse or rats were allowed to freely take solid feed and sterilized tap water. (3) Dose and grouping: orally or intravenously administered at a predetermined dose; grouping was as follows (Dose depends on the compound) Oral administration: 1 to 30 mg/kg (n=2 to 3) Intravenous administration: 0.5 to 10 mg/kg (n=2 to 3) (4) Preparation of dosing solution: for oral administration, in a solution or a suspension state; for intravenous administration, in a solubilized state (5) Administration method: in oral administration, forcedly administer into ventriculus with oral probe; in intravenous administration, administer from caudal vein with a needle-equipped syringe (6) Evaluation items: blood was collected over time, and the plasma concentration of drug was measured by LC/MS/MS (7) Statistical analysis: regarding the transition of the plasma concentration, the area under the plasma concentration-time curve (AUC) was calculated by non-linear least squares program WinNonlin (Registered trade name), and the bioavailability (BA) was calculated from the AUCs of the oral administration group and intravenous administration group

Recombinant human BACE1 = target: T1, Recombinant human BACE1 (Homo sapiens, UniProt P56817); assay: Assay of BACE1 inhibiting activity; format: biochemical; settings: Recombinant human BACE1 7.4 nmol/L, substrate peptide 18 nmol/L, pH 5.0, 30° C., 3 hours; read-out: Test example 1 IC50 (BACE1 inhibiting activity)
T1 construct: purchased R&D Systems
T1 sequence (P56817 46-501): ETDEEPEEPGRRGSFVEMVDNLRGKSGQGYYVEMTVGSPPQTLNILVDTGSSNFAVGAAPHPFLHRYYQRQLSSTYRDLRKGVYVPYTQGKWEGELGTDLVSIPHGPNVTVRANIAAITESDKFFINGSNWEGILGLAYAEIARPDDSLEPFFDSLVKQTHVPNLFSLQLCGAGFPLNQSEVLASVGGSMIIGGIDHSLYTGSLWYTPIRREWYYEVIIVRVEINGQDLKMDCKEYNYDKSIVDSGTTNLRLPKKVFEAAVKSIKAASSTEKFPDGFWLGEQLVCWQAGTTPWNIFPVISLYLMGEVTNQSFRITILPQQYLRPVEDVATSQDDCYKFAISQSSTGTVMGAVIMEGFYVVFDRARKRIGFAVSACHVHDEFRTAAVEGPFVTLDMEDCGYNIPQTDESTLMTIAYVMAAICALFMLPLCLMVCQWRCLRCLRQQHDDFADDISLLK
Procedure: 48.5 μL of substrate peptide solution (Biotin-XSEVNLDAEFRHDSGC-Eu: X=ε-amino-n-capronic acid, Eu=Europium cryptate) was added to each well of 96-hole half-area plate (a black plate: Costar), and after addition of 0.5 μl of the test compound (dissolved in […]) and 1 μl of Recombinant human BACE1 (R&D Systems), the reaction mixture was incubated at 30° C. for 3 hours. The substrate peptide was synthesized by reacting Cryptate TBPCOOH mono SMP (CIS bio international) with Biotin-XSEVNLDAEFRHDSGC (Peptide Institute, Inc.). The final concentrations of the substrate peptide and Recombinant human BACE1 were adjusted to 18 nmol/L and 7.4 nmol/L, respectively, and the reaction was performed in sodium acetate buffer (50 mmol/L sodium acetate, pH 5.0, 0.008% Triton X-100). After the incubation for reaction, 50 μl of 8.0 μg/ml Streptavidin-XL665 (CIS bio international) dissolved in phosphate buffer (150 mmol/L K2HPO4—KH2PO4, pH 7.0, 0.008% Triton X-100, 0.8 mol/L KF) was added to each well and left stand at 30° C. for an hour. After then, fluorescence intensity was measured (excitation wavelength: 320 nm, measuring wavelength: 620 nm and 665 nm) using Wallac 1420 multilabel counter (Perkin Elmer life sciences). Enzymatic activity was determined from counting ratio of each wavelength (10,000×Count 665/Count 620) and 50% inhibitory concentration (IC50) against the enzymatic activity was calculated.

[3] = target: T2, CYP3A4 enzyme expressed in Escherichia coli (Homo sapiens, UniProt P08684); assay: CYP3A4 fluorescent MBI test; format: in vitro ADME; settings: substrate 7-BFC
T2 construct: host or cells: Escherichia coli
T2 sequence (P08684 whole entry): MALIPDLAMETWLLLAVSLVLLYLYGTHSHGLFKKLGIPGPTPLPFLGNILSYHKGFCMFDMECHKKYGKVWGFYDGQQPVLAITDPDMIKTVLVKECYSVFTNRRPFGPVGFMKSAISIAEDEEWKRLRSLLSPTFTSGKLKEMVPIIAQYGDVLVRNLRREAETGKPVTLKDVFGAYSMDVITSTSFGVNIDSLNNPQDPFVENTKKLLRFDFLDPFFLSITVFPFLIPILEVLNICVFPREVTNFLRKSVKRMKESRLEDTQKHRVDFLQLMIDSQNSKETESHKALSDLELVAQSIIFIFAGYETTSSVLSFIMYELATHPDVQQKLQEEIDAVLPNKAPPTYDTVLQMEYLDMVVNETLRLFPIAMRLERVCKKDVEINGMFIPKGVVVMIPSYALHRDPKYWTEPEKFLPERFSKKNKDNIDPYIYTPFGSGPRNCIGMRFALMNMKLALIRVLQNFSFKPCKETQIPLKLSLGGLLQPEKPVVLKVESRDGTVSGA
Procedure: The CYP3A4 fluorescent MBI test is a test of investigating enhancement of CYP3A4 inhibition of a compound by a metabolism reaction, and the test was performed using, as CYP3A4 enzyme expressed in Escherichia coli and employing, as an index, a reaction in which 7-benzyloxytrifluoromethylchmarin (7-BFC) is debenzylated by the CYP3A4 enzyme to produce a metabolite, 7-hydroxytrifluoromethylchmarin (HFC) emitting fluorescent light.
The reaction conditions were as follows: substrate, 5.6 μmol/L 7-BFC; pre-reaction time, 0 or […]; reaction time, 15 minutes; reaction temperature, 25° C. […]
An enzyme in a K-Pi buffer (pH 7.4) and a test drug solution as a pre-reaction solution were added to a 96-well plate at the composition of the pre-reaction, a part of it was transferred to another 96-well plate so that it was 1/10 diluted by a substrate in a K-Pi buffer, NADPH as a co-factor was added to initiate a reaction as an index (without preincubation) and, after a predetermined time of a reaction, acetonitrile/0.5 mol/L Tris(trishydroxyaminomethane)=4/1 was added to stop the reaction. […] For the plate on which each index reaction had been performed, a fluorescent value of 7-HFC which is a metabolite was measured with a fluorescent plate reader. […]

[4] = Solubility test (Test Example 7(1)); format: physicochemical; settings: aqueous buffer, kinetic from dmso stock; medium (JP-I, JP-II), 2% DMSO solution, after 4 hours; read-out: Solubility assessed by 3 stages from turbidity
Procedure: A 2-fold dilution series (12 points) of a 10 mM solution of a test compound in DMSO was added to a medium (JP-I, JP-II) (2%), and solubility was assessed by 3 stages (High; >40 μM, Medium; 3-40 μM, Low; <3 μM) from a turbidity after 4 hours (crystallization information).

[5] = Brain distribution studies; format: in vivo; settings: rat, intravenous 0.5 mg/mL/kg, 30 minutes later, read-out: Brain Kp value (area ratio brain/plasma)
Procedure: Intravenous administration is carried out to a rat by 0.5 mg/mL/kg dosage of a text compound. […] Then, the brain was extracted and 20-25% of homogenate thereof was prepared with distilled water. On the other hand, the obtained blood is used as plasma after centrifuging. Then, to the brain sample was added the control plasma at 1:1. To the plasma samples was added the control brains at 1:1. Each sample was measured using LC/MS/MS. The obtained area ratio (a brain/plasma) was used for the brain Kp value.

[6] = Metabolism stability test; format: in vitro ADME; settings: human liver microsomes 0.5 mg protein/mL, 1 mmol/L NADPH, 37° C., 30 minutes
Procedure: Using a commercially available pooled human hepatic microsomes, a test compound was reacted for a constant time, a remaining rate was calculated by comparing a reacted sample and an unreacted sample, thereby, a degree of metabolism in liver was assessed.
A reaction was performed (oxidative reaction) at 37° C. for 0 minute or 30 minutes in the presence of 1 mmol/L NADPH in 0.2 mL of a buffer (50 mmol/L Tris-HCl pH 7.4, 150 mmol/L potassium chloride, 10 mmol/L magnesium chloride) containing 0.5 mg protein/mL of human liver microsomes. After the reaction, 50 μL of the reaction solution was added to 100 μL of a methanol/acetonitrile=1/1 (v/v), mixed and centrifuged at 3000 rpm for 15 minutes. The test compound in the supernatant was quantified by LC/MS/MS, and a remaining amount of the test compound after the reaction was calculated, letting a compound amount at 0 minute reaction time to be 100%.

[7] = test system: CYP1A2, CYP2C9, CYP2C19, CYP2D6, CYP3A4; assay: in vitro; settings: human, microsomes
Description: Using commercially available pooled human hepatic microsome, and employing, as markers, O-deethylation of 7-ethoxyresorufin (CYP1A2), methyl-hydroxylation of tolbutamide (CYP2C9), 4′-hydroxylation of mephenyloin (CYP2C19), O-demethylation of dextromethorphan (CYP2D6) and hydroxylation of terfenadine (CYP3A4) as typical substrate metabolism reactions of human main five CYP enzyme forms (CYP1A2, 2C9, 2C19, 2D6, 3A4), an inhibitory degree of each metabolite production amount by a test compound was assessed. […]
Each five kinds of substrates, human hepatic microsome, and a test drug in 50 mmol/L Hepes buffer as a reaction solution was added to a 96-well plate at the composition as described above, NADPH, as a cofactor was added to initiate metabolism reactions as markers and, after the incubation at 37° C. for 15 minutes, a methanol/acetonitrile=1/1 (v/v) solution was added to stop the reaction. After the centrifugation at 3000 rpm for 15 minutes, resorufin (CYP1A2 metabolite) in the supernatant was quantified by a fluorescent multilabel counter and tributamide hydroxide (CYP2CP metabolite), mephenyloin 4′ hydroxide (CYP2C19 metabolite), dextromethorphan (CYP2D6 metabolite), and terfenadine alcohol (CYP3A4 metabolite) were quantified by LC/MS/MS. […]

Row | SMILES | IC50 [1] | further results
1 | CC1(c2cc(NC(=O)c3ccc(C#N)cn3)ccc2F)N=C(N)c2cc(Cl)ccc2O1 (stereo not shown) [Compound I-5] | ≤ 1000 nM | –
2 | Cc1cnc(C(=O)Nc2ccc(F)c(C3(C)N=C(N)c4ccccc4S3)c2)cn1 (stereo not shown) [Compound I-7] | ≤ 1000 nM | –
3 | COc1cnc(C(=O)Nc2ccc(F)c(C3(C)N=C(N)c4ccccc4S3)c2)cn1 (stereo not shown) [Compound I-8] | 19 nM | IC50 (Recombinant human BACE1): 66 nM
4 | CC1(c2cc(NC(=O)c3ccc(C#N)cn3)ccc2F)N=C(N)c2cc(N)ccc2O1 (stereo not shown) [Compound I-9] | ≤ 1000 nM | solubility at 4 h [4]: > 40 µM
5 | CC1(c2cc(NC(=O)c3ccc(C#N)cn3)ccc2F)N=C(N)c2ccc(N)cc2O1 (stereo not shown) [Compound I-10] | ≤ 1000 nM | –
6 | Cc1cnc(C(=O)Nc2ccc(F)c(C3(C)N=C(N)CCS3(=O)=O)c2)cn1 (stereo not shown) [Compound I-19] | ≤ 1000 nM | Remaining amount of the test compound after the reaction (metabolism stability) [6]: 97%; IC50 at 15 min [7]: > 17000 nM

Further lines, with some results ahead:

Row | IC50 [1] | SMILES | further results
7 | ≤ 1000 nM | Cc1cnc(C(=O)Nc2ccc(F)c(C3(C)N=C(N)CCS3)c2)cn1 (stereo not shown) [Compound I-1] | bioavailability [2]: 93.4%
8 | < 1 nM | CC1(c2cc(NC(=O)c3ncc(Cl)cc3Cl)ccc2F)N=C(N)CCS1 (stereo not shown) [Compound I-2] | IC50 (Recombinant human BACE1): 10 nM
9 | ≤ 1000 nM | CC1(c2cc(NC(=O)c3ccc(C#N)cn3)ccc2F)N=C(N)c2ccccc2S1 (stereo not shown) [Compound I-3] | –
10 | ≤ 1000 nM | CC1(c2cc(NC(=O)c3ccc(C#N)cn3)ccc2F)N=C(N)c2ccccc2O1 (stereo not shown) [Compound I-4] | CYP3A4 fluorescent MBI: difference between IC50 values without and with preincubation [3]: (−) (when the difference is 3 μM or less, this was defined as (−))
11 | ≤ 1000 nM | CC1(c2cc(NC(=O)c3ccc(C#N)cn3)ccc2F)N=C(N)CCS1 (stereo not shown) [Compound I-6] | –
12 | ≤ 1000 nM | CC1(c2cc(NC(=O)c3ccc(C#N)cn3)ccc2F)N=C(N)c2cc(F)ccc2O1 (stereo not shown) [Compound I-11] | Kp at 0.5 h [5]: 5.8
13 | 15 nM | CC1(c2cc(NC(=O)c3ccc(C#N)cn3)ccc2F)N=C(N)c2ccc(F)cc2O1 (stereo not shown) [Compound I-12] | IC50 (Recombinant human BACE1): 61 nM
